Legend:
HSC-T6 cells = experiment: PPARγ induction and PPARγ siRNA reversal in HSC-T6 cells; assay type: cell-based, rat; conditions: siRNA pretreatment 16 hours before PEDF; 10 nM siRNA
Experimental: HSC-T6 cells, a rat immortalized HSC, retained all features of activated HSCs and was kindly provided by Dr. Friedman S L (Kim et al., J Biol Chem 1998 273:33750-33758). HSC-T6 cells were grown in Waymouth medium supplemented with 10% FBS at 37° C. in a humidified atmosphere of 5% CO2.
The total RNA was extracted from cells using the TRIzol (Invitrogen, Carlsbad, Calif.). […] The intensities of the PCR products were quantified using a FUJI LAS-3000 densitometer and Multi Gauge Ver. […]
Cells were scraped into lysis buffer (150 μL/35-mm well) containing 20 mM HEPES (pH 7.4), 1% SDS, 150 mM NaCl, 1 mM EGTA, 5 mM β-glycerophosphate, 10 mM sodium pyrophosphate, 10 mM sodium fluoride, […] sodium orthovanadate, 10 μg/mL leupeptin, and 10 μg/mL aprotinin. […] Proteins of interest were detected using the appropriate IgG-HRP secondary antibody and ECL reagent. X-ray films were scanned on a Model GS-700 Imaging Densitometer (Bio-Rad Laboratories, Hercules, Calif.) and analyzed using Labworks 4.0 software. For quantification, blots from at least three independent experiments were used. […]

[1] = tested on: culture-activated primary rat HSCs; experiment: Activation of culture-activated primary hepatic stellate cells; assay type: cell-based; conditions: for Col1a1 expression (immunoblot) / MCP-1 expression (immunoblot) / amounts of PPARγ (immunoblot) / α-SMA expression (immunoblot): 48 hours vs solvent, 4.5 nM PEDF, 50 nM 34-mer, 50 nM 44-mer
Experimental: Primary HSCs were isolated by in situ perfusion with collagenase and pronase from livers of male Sprague-Dawley rats (300-450 g), followed by a 25%/50% Percoll gradient centrifugation at 4° C. HSCs were isolated from the upper layer of the discontinuous Percoll density gradient as previously described method (Titos et al., FASEB J 2003 17:1745-1747). Then cells were re-suspended in Dulbecco's modified Eagle's medium (DMEM) supplemented with 10% fetal bovine serum (FBS) and 1% penicillin/streptomycin and plated on 100-mm plastic dishes. Cell purity was verified to be approximately 95-98% by vitamin A fluorescence on day 2 after isolation. HSCs were activated by culturing the cells on plastic for 10 days and then passaged by trypsin-EDTA treatment. Subsequently, the activated HSCs were incubated in 10% FBS-DMEM for 2 days and then used for further experiments.
(§1) Deparaffinized liver tissue sections or 4% paraformaldehyde fixed HSCs were blocked with 10% goat serum and 5% BSA for 1 h. Dual staining was done using primary antibodies against human PEDF (se-59641; Santa Cruz Biotechnology, CA, USA) or α-SMA (ab5694 or ab7817; Abcam), PPARγ (sc-7273; Santa Cruz Biotechnology), albumin (sc-46295; Santa Cruz Biotechnology) or cytokeratin (CK) 18 (GTX112978; GeneTex, Inc.) at 37° C. for 2 h, followed by incubation with the appropriate rhodamine- or FITC-conjugated donkey IgG for 1 hr at room temperature. Nuclei were located by counterstaining with Hoechst 33258 for 7 min. Images were captured using a Zeiss epifluorescence microscope with a CCD camera.
(§2) Cells were scraped into lysis buffer (150 μL/35-mm well) containing 20 mM HEPES (pH 7.4), 1% SDS, 150 mM NaCl, 1 mM EGTA, 5 mM β-glycerophosphate, 10 mM sodium pyrophosphate, 10 mM sodium fluoride, […] sodium orthovanadate, 10 μg/mL leupeptin, and 10 μg/mL aprotinin. The lysate was incubated on ice for 15 min. Total cell lysate was also separated into cytoplasmic and nuclear fractions using the NE-PER nuclear and cytoplasmic extraction kit (Pierce, Rockford, Ill.) according to the manufacturer's instructions. Each cellular fraction was then resolved by SDS-PAGE and then electrotransferred to polyvinylidene difluoride membranes (Millipore, Bedford, Mass.) and processed for immunoblot analysis. Antibodies used in the immunoblot study included human PEDF (sc-59641; Santa Cruz Biotechnology), mouse PEDF (sc-74253; Santa Cruz Biotechnology), type I collagen 1A1 (sc-25974; Santa Cruz Biotechnology), α-SMA (ab5694 or ab7817; Abcam), PPARγ••(sc-7273; Santa Cruz Biotechnology), MCP-1 (ab7202; Abcam Ltd), α-actin (Sigma), epithelial cell adhesion molecule (EpCAM; sc-66020; Santa Cruz Biotechnology), hepatocytes nuclear factor and (HVF)3-β (sc-6554; Santa Cruz Biotechnology). Proteins of interest were detected using the appropriate IgG-HRP secondary antibody and ECL reagent. X-ray films were scanned on a Model GS-700 Imaging Densitometer (Bio-Rad Laboratories, Hercules, Calif.) and analyzed using Labworks 4.0 software. For quantification, blots from at least three independent experiments were used.
After treatment, primary rat HSCs were fixed for 2 h with 4% paraformaldehyde, washed by PBS and then permeabilized for 5 min with 0.1% Triton X-100. Changes in F-actin structures were detected by […] rhodamine-conjugated phalloidin (Sigma) for 1 h at room temperature. Stained F-actin was visualized using a Zeiss Axiovert 25 microscope.
To verify whether the PEDF-derived peptides, particularly, 34-mer PEDF and 44-mer PEDF, may prevent HSCs from activation, culture-activated primary rat HSCs were treated with 4.5 nM PEDF, 50 nM 44-mer, 50 nM 34-mer or PEDF solvent (20 mM Tris/HCl, pH 7.4, 100 mM NaCl) for 48 hours. […] Immunofluorescent assay also confirmed that 34-mer PEDF reduced the levels of α-SMA in culture-activated HSCs as compared with 44-mer PEDF treatment (FIG. 6F). Such result is consistent with the finding in Example 1 that PEDF prevents HSCs from activation by induction of PPARγ.

[2] = tested on: liver-derived progenitor cells (LDPCs) in primary rat liver cells; experiment: Clonogenic capacity of liver cells (LDPC colony formation); assay type: cell-based; conditions: basal medium with 4.5 nM PEDF, 50 nM 34-mer, 50 nM 44-mer or 10% FBS; after 11 days in culture
Experimental: (§3) Liver cells from Sprague Dawley rats were harvested by 2-step in situ collagenase perfusion technique. The cells were then washed in phosphate buffered saline and centrifuged (50 g for 5 minutes) twice at room temperature. The cells were not further subjected to any fractionation as previously described (Sahin M B et al., Liver Transpl. 2008 14(3):333-45). Freshly isolated rat liver cells were cultured in a medium consisting of 75% Dulbecco's modified Eagle's medium (DMEM) and 25% MCDB 201 (Sigma-Aldrich) supplemented with 10% fetal bovine serum, 1 mg/mL of bovine serum albumin (BSA; Sigma), 100 μM of β-mercaptoethanol (Gibco, Carlsbad, Calif.), 25 mM of 4-2-hydroxyethyl-1-piperazineethanesulfonic acid (HEPES), 5 mM of Nicotinamide (Sigma-Aldrich), 1% SITE liquid medium (Sigma-Aldrich), and penicillin (100 μg/ml)/streptomycin (100 μg/ml; Invitrogen, Carlsbad, Calif.) on Type I collagen (Sigma, St. Louis, Mo.) coated tissue culture plates or dishes at a density of 1×10^4 cells/cm^2 at 37° C. in 5% CO2.
To verify the function of 44-mer PEDF, primary rat liver cells were isolated in accordance with steps described above and cultivated (about 1×10^5 per well of 6-well plate; 1×10^4 cells/cm^2) in a conventional basal medium, which was further supplemented with 4.5 nM PEDF, 50 nM 34-mer PEDF, 50 nM 44-mer PEDF or 10% FBS. Medium was changed every 3 days. After being placed in culture for 11 days, clonogenic capacity of liver cells was continuously monitored by phase-contrast microscopy. During this time period, liver-derived progenitor cells (LDPCs) began markedly emerged in primary liver cultures while hepatocytes started dying out. Few colonies were formed by liver cells when continuously cultivated in basal medium, or medium supplemented with 34-mer or FBS.

[3] = tested on: liver-derived progenitor cells (LDPCs); experiment: Self-renewal of LDPCs over two passages and differentiation into hepatocytes; assay type: cell-based, rat; conditions: for autofluorescence (LDPC marker): 4.5 nM PEDF, 50 nM 34-mer or 50 nM 44-mer
Experimental: as §3, §1, §2
It has been reported that LDPCs may not be expanded in conventional basal medium, unless growth factor(s) were added therein (Sahin et al., Liver Transpl. 2008 14(3):333-45). To test the self-renewal property of PEDF derived peptides on LDPCs, liver cells were isolated and grown in separate medium including 4.5 nM (200 ng/ml) PEDF, 50 nM 34-mer or 50 nM 44-mer for two passages, which took a period of 35 days. The newly produced LDPCs in the cultured cells were confirmed by the detection of autofluorescence emitted therefrom; as well as two LDPC markers, which are epithelial cell adhesion molecule (EpCAM) and hepatocytes nuclear factor 3•••(HNF3)-β, by immunoblot analysis. […]

| Substance | suppressive effects of PEDF on HSC activation (α-SMA, Col1a1, MCP-1) (HSC-T6 cells) | Col1a1 expression (immunoblot) [1] | MCP-1 expression (immunoblot) [1] | amounts of PPARγ (immunoblot) [1] | α-SMA expression (immunoblot) [1] | α-SMA by immunofluorescent staining ([1]; culture-activated HSCs, 34-mer compared with 44-mer PEDF treatment) | HSC morphology ([1]; culture-activated HSCs, phase contrast / immunofluorescence) | colonies of LDPCs formed [2] | autofluorescence (LDPC marker) ([3]; two passages, 35 days) | ability of expanded LDPCs to differentiate into hepatocytes (albumin and CK-18 staining) ([3]; immunofluorescence) | self-renewal by expression of LDPC markers EpCAM and HNF3-β (immunoblot) ([3]; two passages, 35 days) |
| --- | --- | --- | --- | --- | --- | --- | --- | --- | --- | --- | --- |
| PPARγ siRNA: rat PPARγ siRNA (SEQ ID NO: 7/8) or a mixture of four rat PPARγ siRNAs (SMART-pools) (chain 1 CACCAUUUGUCAUCUACGATT; chain 2 UCGUAGAUGACAAAUGGUGTT; chemistry not given here) [reference compound] | significantly reduced the suppressive effects of PEDF | – | – | – | – | – | – | – | – | – | – |
| 34-mer PEDF: synthetic human peptide, the segment of PEDF from amino acid residues 44 to 77 (Ac-DPFFKVPVNKLAAAVSNFGYDLYRVRSSTSPTTN-NH2) | – | reduced | reduced | enhanced | reduced | reduced | causes reversal of the activated HSC morphology | Few colonies | very little autofluorescence or none at all | – | – |
| Ac-VLLSPLSVATALSALSLGAEQRTESIIHRALTTDLISSPDIHGT-NH2 [44-mer PEDF] | – | does not possess such effects | does not possess such effects | does not possess such effects | does not possess such effects | – | – | dense colonies | emitted autofluorescence | retain the ability of differentiating into hepatocyte | exhibits self-renewal property |

Source: patent US8507446B2, “Use of PEDF-derived polypeptides for treating liver cirrhosis” (MacKay Memorial Hospital, priority 2011, dated 2013)
